Experiments:
Assay in all cases: relative viability (nuclei count vs DMSO), 5 days (fraction); higher = more cells survive
Sulindac + Pictilisib = compound: CC1=C(CC(=O)O)c2cc(F)ccc2/C1=C\c1ccc([S+](C)[O-])cc1 [Sulindac] + CS(=O)(=O)N1CCN(Cc2cc3nc(-c4cccc5[nH]ncc45)nc(N4CCOCC4)c3s2)CC1 [Pictilisib] (partner 1 µM)
In short: (§1)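 Dosing by pin tool came one day after lung cancer cell lines were seeded in 1536-well plates, using either one drug or a fixed anchor-drug dose plus five library-drug doses (not always all listed) in √10 steps. After 5 days, nuclei were counted on 4× images. Relative viability is treated-well nuclei count divided by vehicle-well nuclei count, and values are medians of duplicate plates.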

Sulindac + Bortezomib = compound: CC1=C(CC(=O)O)c2cc(F)ccc2/C1=C\c1ccc([S+](C)[O-])cc1 [Sulindac] + CC(C)C[C@H](NC(=O)[C@H](Cc1ccccc1)NC(=O)c1cnccn1)B(O)O [Bortezomib] (partner 0.002 µM)
In short: as §1

Sulindac + Luminespib = compound: CC1=C(CC(=O)O)c2cc(F)ccc2/C1=C\c1ccc([S+](C)[O-])cc1 [Sulindac] + CCNC(=O)c1noc(-c2cc(C(C)C)c(O)cc2O)c1-c1ccc(CN2CCOCC2)cc1 [Luminespib] (partner 0.01 µM)
In short: as §1

[1] = compound: O=c1[nH]cc(F)c(=O)[nH]1 [5-Fluorouracil] + CC(=O)Nc1cccc(-n2c(=O)n(C3CC3)c(=O)c3c(Nc4ccc(I)cc4F)n(C)c(=O)c(C)c32)c1 [Trametinib] (partner 0.02 µM)
In short: as §1

Cell Line | relative viability (Sulindac + Pictilisib; first compound 0.08 µM) | relative viability (Sulindac + Pictilisib; first compound 0.253 µM) | relative viability (Sulindac + Pictilisib; first compound 0.8 µM) | relative viability (Sulindac + Pictilisib; first compound 2.53 µM) | relative viability (Sulindac + Pictilisib; first compound 8 µM) | relative viability (Sulindac + Bortezomib; first compound 0.08 µM) | relative viability (Sulindac + Bortezomib; first compound 0.253 µM) | relative viability (Sulindac + Bortezomib; first compound 0.8 µM) | relative viability (Sulindac + Bortezomib; first compound 2.53 µM) | relative viability (Sulindac + Bortezomib; first compound 8 µM) | relative viability (Sulindac + Luminespib; first compound 0.08 µM) | relative viability (Sulindac + Luminespib; first compound 0.253 µM) | relative viability (Sulindac + Luminespib; first compound 2.53 µM) | relative viability (Sulindac + Luminespib; first compound 8 µM) | relative viability ([1]; first compound 0.02 µM) | relative viability ([1]; first compound 0.2 µM) | relative viability ([1]; first compound 0.6325 µM) | relative viability ([1]; first compound 2 µM) | relative viability (Sulindac + Luminespib; first compound 0.8 µM)
NCI-H2087 | 0.951 | 0.783 | 0.622 | 0.916 | 0.984 | 1.17 | 0.835 | 0.695 | 0.892 | 1.09 | 0.196 | 0.164 | 0.148 | 0.167 | 0.216 | 0.157 | 0.167 | 0.216 | 
NCI-H596 | 0.391 | 0.378 | 0.413 | 0.37 | 0.411 | 1.04 | 1.08 | 0.831 | 1 | 1.21 | 1.08 | 0.99 | 1 | 0.993 | 0.845 | 0.649 | 0.632 | 0.479 | 0.915
Calu-6 | 1.03 | 0.989 | 0.799 | 0.949 | 1.17 | 1.11 | 1.14 | 0.915 | 1.02 | 1.13 |  |  |  |  |  |  |  |  | 
LCLC-103H | 0.757 | 0.612 | 0.545 | 0.642 | 0.748 | 1.24 | 1.11 | 0.948 | 1.05 | 1.21 | 1.21 | 1.09 | 0.886 | 0.996 | 0.733 | 0.671 | 0.598 | 0.566 | 0.751
HCC-15 | 0.861 | 0.817 | 0.526 | 0.735 | 0.814 | 1.34 | 1.08 | 0.676 | 1.07 | 1.07 | 0.588 | 0.351 | 0.431 | 0.389 | 0.321 | 0.365 | 0.34 | 0.284 | 0.304
H3255 | 0.486 | 0.463 | 0.464 | 0.562 | 0.524 | 0.714 | 0.684 | 0.735 | 0.891 | 0.916 | 0.85 | 0.958 | 0.954 | 1.05 | 0.664 | 0.716 | 0.687 | 0.567 | 0.847
NCI-H1915 | 0.975 | 0.927 | 0.761 | 0.887 | 1.05 | 1.18 | 1.08 | 0.861 | 0.956 | 1.05 | 1.07 | 0.883 | 0.909 | 0.813 | 0.28 | 0.325 | 0.253 | 0.283 | 
NCI-H1563 | 0.609 | 0.662 | 0.665 | 0.65 | 0.622 | 0.848 | 0.876 | 0.793 | 0.779 | 0.925 | 0.449 | 0.553 | 0.551 | 0.498 |  |  |  |  | 0.535
NCI-H650 | 0.839 | 0.889 | 0.785 | 0.915 | 0.912 | 0.845 | 0.877 | 0.862 | 0.897 | 1.08 | 0.796 | 0.87 | 0.644 | 0.935 | 0.914 | 0.701 | 0.407 | 0.341 | 0.659
NCI-H2342 |  |  |  |  |  |  |  |  |  |  | 0.636 | 0.767 | 0.761 | 0.821 | 0.932 | 0.762 | 0.843 | 0.662 | 0.7
NCI-H1299 | 0.671 | 0.9 | 0.651 | 0.778 | 0.878 | 1.09 | 1.04 | 1.04 | 1.03 | 1.05 |  |  |  |  |  |  |  |  | 
LK-2 | 0.551 | 0.675 |  |  | 0.558 |  |  |  |  |  | 0.2 | 0.18 |  | 0.167 | 0.713 | 0.769 | 0.633 | 0.453 | 
HCC-78 | 0.309 | 0.269 | 0.207 | 0.183 | 0.246 | 0.432 | 0.534 | 0.379 | 0.607 | 0.532 |  |  |  |  | 1.01 | 0.717 | 0.435 | 0.297 | 
NCI-H358 | 0.262 | 0.324 | 0.316 | 0.269 | 0.352 |  |  |  |  |  | 0.202 | 0.384 | 0.46 | 0.359 | 0.17 | 0.124 | 0.123 | 0.137 | 
SK-MES-1 | 0.368 | 0.427 | 0.323 | 0.362 | 0.459 |  |  |  |  |  | 0.875 | 0.985 | 0.735 | 0.935 | 0.496 | 0.552 | 0.381 | 0.352 | 0.78
SW 900 |  |  |  |  |  |  |  |  |  |  |  | 0.176 | 0.156 | 0.173 | 0.747 | 0.735 | 0.59 | 0.558 | 
NCI-H1703 | 0.229 | 0.238 | 0.219 | 0.229 | 0.291 | 0.303 | 0.394 | 0.225 | 0.457 | 0.284 |  |  |  |  |  |  |  |  | 
EBC-1 | 0.382 | 0.422 | 0.343 | 0.342 | 0.49 | 0.585 | 0.557 | 0.56 | 0.474 | 0.663 |  |  |  |  |  |  |  |  | 
NCI-H1395 | 0.705 | 0.603 | 0.872 | 0.527 | 0.879 |  |  |  |  |  | 0.713 | 0.68 | 0.709 | 0.643 | 1.03 | 0.987 | 1.12 | 1.11 | 0.611
IA-LM | 0.439 | 0.371 |  | 0.352 | 0.419 | 0.811 | 0.91 |  | 0.977 | 0.89 |  |  |  |  |  |  |  |  | 
ABC-1 | 0.987 | 0.849 | 0.539 | 0.542 | 0.979 | 0.328 | 0.281 | 0.279 | 0.311 | 0.31 | 0.397 | 0.415 |  | 0.71 |  |  |  |  | 0.687
NCI-H2170 | 0.274 | 0.288 | 0.291 | 0.294 | 0.322 |  |  |  |  |  | 0.782 | 0.755 | 0.671 | 0.627 | 0.976 | 0.78 | 0.478 | 0.312 | 0.941
NCI-H1793 | 0.275 | 0.329 | 0.271 | 0.351 | 0.344 |  |  |  |  |  | 0.188 | 0.168 | 0.169 | 0.265 | 0.398 | 0.49 | 0.373 | 0.38 | 0.163

Source: the supplement of paper PMC10307832
